# Source: ChEMBL document CHEMBL3046280, “Synthesis of 1-amidoalkyl-2-naphthols and oxazine derivatives with study of their antibacterial and antiviral activities” (Med Chem Res, 2013)
# Activity calls are given as the source filed them. The rule behind the calls is not given here.
# Assays:
# [1] = Therapeutic index, ratio of LD50 for african green monkey Vero cells to EC50 for Avian influenza virus H5N1 infected in african green monkey Vero cells; type: cell-based; settings: read-out: Ratio LD50/EC50
# [2] = tested on: unidentified influenza virus; test: Antiviral activity against unidentified influenza virus (H5N1) infected African green monkey Vero cells assessed as protection against virus-induced cytopathic effect incubated for 3 days measured on day 4 post infection by MTT assay; type: functional, organism-based
# Vero = test: Cytotoxicity against Chlorocebus aethiops (African green monkey) Vero cells after 24 hr by MTT assay; type: cell-based; settings: chlorocebus sabaeus
# Bacillus subtilis [3] = test: Antibacterial activity against Bacillus subtilis assessed as growth inhibition; type: functional
# Staphylococcus aureus = test: Antibacterial activity against Staphylococcus aureus assessed as growth inhibition; type: functional
# Proteus mirabilis [4] = test: Antibacterial activity against Proteus mirabilis assessed as growth inhibition; type: functional
# Escherichia coli = test: Antibacterial activity against Escherichia coli assessed as growth inhibition; type: functional, organism-based
# Pseudomonas aeruginosa = test: Antibacterial activity against Pseudomonas aeruginosa assessed as growth inhibition; type: functional, organism-based
# Klebsiella pneumoniae [5] = test: Antibacterial activity against Klebsiella pneumoniae assessed as growth inhibition; type: functional
# Bacillus subtilis [6] = test: Antibacterial activity against Bacillus subtilis assessed as growth inhibition at 0.042 uM/ml; type: functional, organism-based
# Proteus mirabilis [7] = test: Antibacterial activity against Proteus mirabilis assessed as growth inhibition at 0.042 uM/ml; type: functional, organism-based
# Klebsiella pneumoniae [8] = test: Antibacterial activity against Klebsiella pneumoniae assessed as growth inhibition at 0.042 uM/ml; type: functional, organism-based
molecule,measurement,setting,value
CC(=O)N[C@H]1[C@H]([C@H](O)[C@H](O)CO)OC(C(=O)O)=C[C@@H]1NC(=N)N [ZANAMIVIR],selectivity ratio,[1],15.5
same,EC50,[2],0.015 uM/ml
same,LD50,Vero,0.232 uM/ml
CC(=O)NC(c1cn(-c2ccccc2)nc1-c1ccccc1)c1c(O)ccc2ccccc12 (stereo not given),growth inhibition (GI),Bacillus subtilis [3],inactive
same,growth inhibition (GI),Staphylococcus aureus,inactive
same,growth inhibition (GI),Proteus mirabilis [4],inactive
same,growth inhibition (GI),Escherichia coli,inactive
same,growth inhibition (GI),Pseudomonas aeruginosa,inactive
same,diameter of the inhibition zone (DIZ),Klebsiella pneumoniae [5],18 mm
same,selectivity ratio,[1],7.19
same,EC50,[2],0.021 uM/ml
same,LD50,Vero,0.151 uM/ml
c1ccc(C2=NC(c3c[nH]c4ccccc34)c3c(ccc4ccccc34)O2)cc1 (stereo not given),diameter of the inhibition zone (DIZ),Bacillus subtilis [3],14 mm
same,diameter of the inhibition zone (DIZ),Staphylococcus aureus,11 mm
same,growth inhibition (GI),Proteus mirabilis [4],inactive
same,growth inhibition (GI),Escherichia coli,inactive
same,growth inhibition (GI),Pseudomonas aeruginosa,inactive
same,diameter of the inhibition zone (DIZ),Klebsiella pneumoniae [5],11 mm
same,selectivity ratio,[1],2.12
same,EC50,[2],0.049 uM/ml
same,LD50,Vero,0.104 uM/ml
NC(=O)NC(c1cn(-c2ccccc2)nc1-c1ccccc1)c1c(O)ccc2ccccc12 (stereo not given),growth inhibition (GI),Bacillus subtilis [3],inactive
same,diameter of the inhibition zone (DIZ),Staphylococcus aureus,24 mm
same,diameter of the inhibition zone (DIZ),Proteus mirabilis [4],0 mm
same,growth inhibition (GI),Escherichia coli,inactive
same,growth inhibition (GI),Pseudomonas aeruginosa,inactive
same,diameter of the inhibition zone (DIZ),Klebsiella pneumoniae [5],11 mm
same,selectivity ratio,[1],6.84
same,EC50,[2],0.025 uM/ml
same,LD50,Vero,0.171 uM/ml
CC(=O)NC(c1c(O)ccc2ccccc12)c1c[nH]c2ccccc12 (stereo not given),diameter of the inhibition zone (DIZ),Bacillus subtilis [3],17 mm
same,diameter of the inhibition zone (DIZ),Staphylococcus aureus,20 mm
same,growth inhibition (GI),Proteus mirabilis [4],inactive
same,growth inhibition (GI),Escherichia coli,inactive
same,growth inhibition (GI),Pseudomonas aeruginosa,inactive
same,growth inhibition (GI),Klebsiella pneumoniae [5],inactive
same,selectivity ratio,[1],8.95
same,EC50,[2],0.022 uM/ml
same,LD50,Vero,0.197 uM/ml
NC(=O)NC(c1c(O)ccc2ccccc12)c1c[nH]c2ccccc12 (stereo not given),growth inhibition (GI),Bacillus subtilis [3],inactive
same,growth inhibition (GI),Staphylococcus aureus,inactive
same,growth inhibition (GI),Proteus mirabilis [4],inactive
same,growth inhibition (GI),Escherichia coli,inactive
same,growth inhibition (GI),Pseudomonas aeruginosa,inactive
same,diameter of the inhibition zone (DIZ),Klebsiella pneumoniae [5],11 mm
same,selectivity ratio,[1],7
same,EC50,[2],0.031 uM/ml
same,LD50,Vero,0.217 uM/ml
c1ccc(-c2nn(-c3ccccc3)cc2C2NC(c3cn(-c4ccccc4)nc3-c3ccccc3)c3c(ccc4ccccc34)O2)cc1 (stereo not given),diameter of the inhibition zone (DIZ),Bacillus subtilis [3],11 mm
same,diameter of the inhibition zone (DIZ),Staphylococcus aureus,11 mm
same,growth inhibition (GI),Proteus mirabilis [4],inactive
same,growth inhibition (GI),Escherichia coli,inactive
same,growth inhibition (GI),Pseudomonas aeruginosa,inactive
same,diameter of the inhibition zone (DIZ),Klebsiella pneumoniae [5],11 mm
same,selectivity ratio,[1],1.98
same,EC50,[2],0.045 uM/ml
same,LD50,Vero,0.089 uM/ml
NC1=NC(c2cn(-c3ccccc3)nc2-c2ccccc2)c2c(ccc3ccccc23)O1 (stereo not given),diameter of the inhibition zone (DIZ),Bacillus subtilis [3],12 mm
same,growth inhibition (GI),Staphylococcus aureus,inactive
same,growth inhibition (GI),Proteus mirabilis [4],inactive
same,growth inhibition (GI),Escherichia coli,inactive
same,growth inhibition (GI),Pseudomonas aeruginosa,inactive
same,diameter of the inhibition zone (DIZ),Klebsiella pneumoniae [5],11 mm
same,selectivity ratio,[1],5.61
same,EC50,[2],0.0148 uM/ml
same,LD50,Vero,0.083 uM/ml
O=C(NC(c1c(O)ccc2ccccc12)c1c[nH]c2ccccc12)c1ccccc1 (stereo not given),diameter of the inhibition zone (DIZ),Bacillus subtilis [3],11 mm
same,diameter of the inhibition zone (DIZ),Staphylococcus aureus,11 mm
same,growth inhibition (GI),Proteus mirabilis [4],inactive
same,growth inhibition (GI),Escherichia coli,inactive
same,growth inhibition (GI),Pseudomonas aeruginosa,inactive
same,growth inhibition (GI),Klebsiella pneumoniae [5],inactive
same,selectivity ratio,[1],16.2
same,EC50,[2],0.019 uM/ml
same,LD50,Vero,0.307 uM/ml
GENTAMICIN,inhibition zone (IZ),Bacillus subtilis [6],21 mm
same,inhibition zone (IZ),Proteus mirabilis [7],25 mm
same,inhibition zone (IZ),Klebsiella pneumoniae [8],19 mm
O=C(NC(c1cn(-c2ccccc2)nc1-c1ccccc1)c1c(O)ccc2ccccc12)c1ccccc1 (stereo not given),diameter of the inhibition zone (DIZ),Bacillus subtilis [3],20 mm
same,growth inhibition (GI),Staphylococcus aureus,inactive
same,growth inhibition (GI),Proteus mirabilis [4],inactive
same,growth inhibition (GI),Escherichia coli,inactive
same,growth inhibition (GI),Pseudomonas aeruginosa,inactive
same,diameter of the inhibition zone (DIZ),Klebsiella pneumoniae [5],14 mm
same,selectivity ratio,[1],5.44
same,EC50,[2],0.018 uM/ml
same,LD50,Vero,0.098 uM/ml
NC1=NC(c2c[nH]c3ccccc23)c2c(ccc3ccccc23)O1 (stereo not given),diameter of the inhibition zone (DIZ),Bacillus subtilis [3],12 mm
same,growth inhibition (GI),Staphylococcus aureus,inactive
same,growth inhibition (GI),Proteus mirabilis [4],inactive
same,growth inhibition (GI),Escherichia coli,inactive
same,growth inhibition (GI),Pseudomonas aeruginosa,inactive
same,diameter of the inhibition zone (DIZ),Klebsiella pneumoniae [5],13 mm
same,selectivity ratio,[1],2.05
same,EC50,[2],0.061 uM/ml
same,LD50,Vero,0.125 uM/ml
c1ccc2c3c(ccc2c1)OC(c1c[nH]c2ccccc12)NC3c1c[nH]c2ccccc12 (stereo not given),diameter of the inhibition zone (DIZ),Bacillus subtilis [3],13 mm
same,growth inhibition (GI),Staphylococcus aureus,inactive
same,growth inhibition (GI),Proteus mirabilis [4],inactive
same,growth inhibition (GI),Escherichia coli,inactive
same,growth inhibition (GI),Pseudomonas aeruginosa,inactive
same,diameter of the inhibition zone (DIZ),Klebsiella pneumoniae [5],12 mm
same,selectivity ratio,[1],0.726
same,EC50,[2],0.168 uM/ml
same,LD50,Vero,0.122 uM/ml
